Assay results published in patent US20130156753A1 (UNIVERSITY OF ROCHESTER, priority 2010, published 2013).

Columns and labels:
[1] = tested on: NRVMs; test: Cardiomyocyte hypertrophy (cell size, α-actinin immunostaining) in NRVMs; format: cell-based, rat
From the text: A-H, Cardiomyocyte size was detected by immunostaining with anti-α-actinin antibody. […] The cells were fixed and analyzed for GFP-HDAC5 localization, α-actinin staining and nuclear DAPI staining *, p<0.05 versus without PE; #, p<0.05 versus with PE alone. I, Schematic model for PKA-dependent regulation of HDAC5 subcellular localization and gene transcription.
Cardiomyocyte protein marker α-actinin was detected by immunofluorescence using antibody against α-actinin and fluorescein-conjugated secondary antibody.
After 24 hour culture, cells were maintained in serum-free DMEM medium for additional 24 hours, and then exposed to various inducers or inhibitors (for 30 minutes) prior to PE or PMA stimulation for indicated times. The cells were washed with PBS and fixed with 3.7% formaldehyde in PBS. Images were captured at a magnification of ×60, using a fluorescence microscope (Olympus BX51) equipped with a digital camera and Spot software system (RT Color Diagnostic Instruments). For analysis of the myocyte marker, sarcomeric α-actinin antibody and DAPI in neonatal cardiomyocyte, immunocytochemistry were performed according to a standard protocol. For subcellular localization of endogenous HDAC5 in cardiomyocyes, we fixed cells and used the detergent Saponin (Sigma, 84510) to make cells permeable, and then performed immunocytochemistry with anti-HDAC5 antibody (Santa Cruz, sc-11419). For subcellular localization of HDAC5, total around 200 cells were counted in each condition. For cardiomyocyte size, total myocyte surface areas were calculated using NIH Image J software, and expressed as the average of 100 randomly selected cells per condition.

[2] = tested on: HDAC5 nuclear export; test: PE-induced HDAC5 nuclear export in neonatal rat ventricular cardiomyocytes (NRVMs); format: cell-based
Description: A, B, Cos7 cells were co-transfected with expression vectors encoding GFP-tagged HDAC5 (GFP-HDAC5) and constitutively active protein kinases as indicated, and then exposed to phorbol-12-myristate-13-acetate (PMA, […]) for 3 hours. […] A-F, The cells were fixed and the subcellular localization of GFP-HDAC5 was visualized by fluorescence microscopy.
The cells were fixed and GFP-HDAC5 localization was analyzed by fluorescence microscopy. α-actinin was detected by immunofluorescence using an antibody against α-actinin and a fluorescein-conjugated secondary antibody. The nuclei were stained with DAPI.
The cells were fixed and GFP-HDAC5 localization was analyzed by fluorescence microscopy. α-actinin was detected by immunofluorescence using an antibody against α-actinin and a fluorescein-conjugated secondary antibody. The nuclei were stained with DAPI. B, PKA expression in cell lysates were determined by Western blot using PKA antibody.
The cells were fixed and endogenous HDAC5 localization was analyzed by fluorescence microscopy. HDAC5 and α-actinin was detected by immunocytochemistry with antibody against HDAC5 and α-actinin.
The cells were fixed and GFP-HDAC5 subcellular localization was analyzed by fluorescence microscopy and stained with an α-actinin antibody and DAPI.
Cos7 cells were grown in Dulbecco's Modified Eagle's Medium (DMEM) supplemented with fetal bovine serum (10%), 1-glutamine and penicillin/streptomycin. Primary cultures of neonatal rat cardiac ventricular myocytes (NRVMs) from 1- to 2-day-old Sprague-Dawley rats (Charles River Laboratories) were prepared. In brief, NRVMs were dispersed from the ventricles by digestion with collagenase type II (Worthington). Cells were cultured in Dulbecco's modified Eagle's medium (DMEM) supplemented with 1,000 mg/L D-glucose, L-glutamine, and 110 mg/L sodium pyruvate (GIBCO), fetal bovine serum (10%), and penicillin/streptomycin at 37° C. in a 5% CO2 humidified atmosphere for 2-3 days. For inducer or inhibitor studies, cells were pretreated with various inducers or inhibitors for 30 min in serum-free medium. Primary cultures of adult rat cardiomyocytes were prepared from 200-250g male Sprague-Dawley rats. Briefly, rats were anesthetized, hearts excised and placed in Krebs buffer and perfused and digested with endotoxin-free collagenase II (Worthington). This protocol typically yielded approximately 4×10^6 cells per heart, with ˜85% surviving, rod-shaped Ca2+-tolerant cells. Myocytes were allowed to attach to 20 μg/ml laminin coated plates in Modified Eagle Medium (MEM) containing 2.5% FBS, 25 mmol/L HEPES, 5 mmol/L taurine, 2 mmol/L carnitine, 2 mmol/L creatinine, 100 IU/ml penicillin, and 100 μg/ml streptomycin for 2 hrs before replacing with serum-free MEM containing 25 mmol/L HEPES, 5 mmol/L taurine, 2 mmol/L carnitine, 2 mmol/L creatinine, 100 IU/ml penicillin, and 100 μg/ml streptomycin.
Adenoviruses encoding Flag-tagged HDAC5 wild-type (WT), GFP-tagged HDAC5-WT, and YFP-tagged HDAC7-WT were generated as described previously (Ha C H, et al. (2008) Protein Kinase D-dependent Phosphorylation and Nuclear Export of Histone Deacetylase 5 Mediates Vascular Endothelial Growth Factor-induced Gene Expression and Angiogenesis. J Biol Chem 283(21):14590-14599; Ha C H et al. (2008) VEGF stimulates HDAC7 phosphorylation and cytoplasmic accumulation modulating matrix metalloproteinase expression and angiogenesis. Arterioscler Thromb Vasc Biol 28(10):1782-1788). Adenovirus expressing GFP-tagged HDAC5-S280A mutant, GFP-tagged HDAC5-S280D mutant and Flag-tagged HDAC5-S280A mutant were generated by using ViraPower Adenoviral Expression System (Invitrogen) according to the manufacturer's protocol. Adenovirus containing β-galactosidase (LacZ) or GFP was used as a control. […]

[3] = NRVMs with GFP-HDAC5-WT, cAMP 30 min, PE 24 hours

In the case of `CCCC(=O)Nc1ncnc2c1ncn2[C@@H]1O[C@@H]2COP(=O)(O)O[C@H]2[C@H]1OC(=O)CCC` [cAMP, Dibutyryl-cAMP], the “size of cardiomyocytes after PE” value [1, 3] is reported as “decreased the size of cardiomyocytes”, the “PE/Angiotensin II-induced cardiomyocyte hypertrophy” value ([1]; NRVMs, forskolin 10 μM, cAMP 500 μM, Rolipram 10 μM 30 min, PE or Angiotensin II 24 hours) is reported as “inhibit PE/Angiotensin II-induced cardiomyocyte hypertrophy” and the “HDAC5 translocation from nucleus to cytoplasm after PE” value [2, 3] is reported as “prevented from translocating from the nucleus to the cytoplasm”. For the same molecule, the “PE-induced nuclear export of GFP-HDAC5 S280A” value ([2]; NRVMs, S280A mutant, cAMP 500 μM or forskolin 10 μM 30 min, PE 3 hours) was “resistant to PKA inhibition”, the “PE-stimulated HDAC5 nuclear export” value ([2]; NRVMs, adenoviral GFP-HDAC5, 30 min pretreatment, PE 10 μM 3 hours) was “markedly inhibited PE-stimulated HDAC5 nuclear export” and the “PE-induced endogenous HDAC5 nuclear export” value ([2]; NRVMs, endogenous HDAC5, cAMP 500 μM 30 min, PE 10 μM 3 hours) was “same inhibitory effect”.
